# Test results published in patent publication US20100008894A1, “Process of Screening a Molecule as a Candidate Drug for the Treatment of Bipolar Disorder” (Institute pasteur, priority 2005, published 2010).
# Columns and labels:
# NM23-H2 = NM23-H2 (Homo sapiens, UniProt P22392); settings: cited from earlier work
# CysQ [1] = biological target: T1, CysQ (Escherichia coli, UniProt P22255); assay: pAp/AMP-binding assay with recombinant CysQ; design: species or system E. coli; settings: 15 μg protein, 5 μl agarose
# T1 construct: made in house; host or cells: E. coli MG1655 carrying pUM404, arabinose-induced
# Experimental: (§1) 30 μl samples containing 15 μg of Orn-His or CysQ-His in pAp-agarose buffer containing 100 mM NaCl were incubated with 5 μl of prewashed pAp- or AMP-agarose by rotating for 1 hour at 4° C. in durapore spin columns (Millipore). Beads were removed by centrifugation, and 5 μl of the unbound fraction, designated flow through was measured for protein content using Bio-Rad protein assay. The fraction bound to the beads was eluted by the addition of 40 μl of hot SDS-sample buffer and incubation for 15 minutes at 65° C.
# (§2) Orn is an essential protein in E. coli involved in mRNA degradation. It has 3′ to 5′ exoribonuclease activity selectively active on short ribonucleotides. 5′adenosine monophosphate (AMP) is known to inhibit Orn (Datta & Niyogi, 1975). It was therefore important to compare binding of Orn to AMP and pAp. To this end recombinant Orn has been purified and its binding was measured to equal amounts of pAp- or AMP-agarose, both affinity substrates with identical binding capacities, CysQ was included as a positive control. Similar experiments were done with cell free extracts from strains overexpressing Orn or CysQ. […] Furthermore, significant amounts of Orn, roughly one third, but not CysQ bind to AMP-agarose. […]
# Orn [2] = biological target: T2, Orn (Escherichia coli, UniProt P0A784); assay: Orn activity assay (degradation of RNA-oligo 5mer); format: biochemical, E. coli; settings: 10 μM inhibitor; 3 μM 5′Cy5-CCCCC3′ RNA
# T2 construct: made in house; host or cells: E. coli MG1655 carrying pUM408, arabinose-induced
# Experimental: Custome made RNA-oligo 5mers (5′Cy5-CCCCC3′), obtained from Proligo, were used as substrate for in vitro activity assays. 30 μl reactions containing 50 mM HEPES pH 7.5, 5 mM MnCl2, 3 μM substrate RNA and 0.1 μg oligoribonuclease were incubated at 37° C., and reactions were initiated by adding substrate. Inhibitors were added as indicated in the text. At intervals, 5 μl reaction aliquots were taken and stopped by adding an equal volume of sample buffer (95% formamide, 20 mM EDTA, 0.1% bromphenol blue) and frozen at −20° C. For analysis of the reaction products, samples were heated at 80° C. for 3 minutes and 2.5 μl was applied to PAGE on a 22% SDS-PAA gel containing 2×TBE and run in 2×TBE. Fluorescent RNA oligos were visualized using a Molecular Dynamics STORM 860 in 650-nm long-pass filter mode.
# Given the strong affinity of Orn for pAp, it was investigated whether pAp affects Orn activity. […] Those small RNA-oligos are called here nanoRNAs, in order to distinguish them from microRNAs, which have become a subject of extensive studies in the last several years. RNA-oligo 5-mers (5′-CCCCC-3′) labeled at their 5′-phosphate end with the sulfoindocyanine succinimidyl ester cyanine 5 (Cy5) were therefore used as substrate for in vitro assays with purified recombinant Orn. […]
# Orn [3] = biological target: T2, Orn; assay: pAp/AMP-binding assay with recombinant Orn; design: species or system E. coli; settings: 15 μg protein, 5 μl agarose
# Experimental: as §1, §2
# CysQ [4] = biological target: T1, CysQ; format: biochemical, E. coli
# PARP = biological target: T3, PARP (Homo sapiens, UniProt P09874); assay: Colorimetric PARP assay from Trevigen; format: biochemical; settings: 1 μM pAp, in vitro
# T3 construct: purchased Trevigen
# Text: The Inventors plan to verify this effect using an independent method, as they are not certain the effect that can be observed with the kit they used for this experiment (Colorimetric PARP assay from Trevigen) is independent of the nature of the inhibitor, as it seems that the phenomenon of self-inhibition of PARP due to auto modification has an important impact on the result. They plan therefore to measure PARP activity in-vitro in the presence or absence of pAp according to J. C. Ame using ^32P-NAD.
# Sfn [5] = biological target: T4, Sfn (Homo sapiens, UniProt Q9Y3B8); assay: Sfn-catalyzed degradation of oligo RNA; format: biochemical
# T4 construct: His tag; made in house
# T4 sequence (Q9Y3B8 26-237): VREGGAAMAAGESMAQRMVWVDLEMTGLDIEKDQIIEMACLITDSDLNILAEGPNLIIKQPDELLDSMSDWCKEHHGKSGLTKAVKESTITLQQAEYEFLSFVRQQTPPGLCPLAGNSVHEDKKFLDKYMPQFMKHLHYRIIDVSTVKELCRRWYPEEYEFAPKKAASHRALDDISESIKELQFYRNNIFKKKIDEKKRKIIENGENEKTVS
# Experimental: (§3) FIG. 9: Sensitivity of Sfn-catalyzed degradation of oligo RNA to pAp. Shown is the quantification of the distribution of reaction products that were separated on 22% PAA gels. Reactions included 0.5 μg Sfn and 3 μM of RNA oligo 5mer (5′Cy5-CCCCC3′). Reactions were started by the addition of enzyme. 20 μM or 50 μM pAp was present where indicated. Closed circle: 5mer, open circle: 4mer, closed triangle: 3mer, open triangle: 2mer, square: 1mer.
# The term nanoRNA has been introduced to describe these extremely short RNA oligos. The Inventors have purified His-tagged Sfn in order to evaluate its sensitivity to pAp in-vitro. Inhibition of Sfn-catalyzed degradation of nanoRNA was tested at two concentrations of the inhibitor, 20 and 50 μM.
# Sfn [6] = biological target: T4, Sfn; assay: Sfn-catalyzed degradation of oligo DNA; format: biochemical; settings: 50 μM pAp; DNA oligo 5mer
# Experimental: as §3, with “10:” for “9:”, “DNA” for “RNA”, “3” for “0.5”, “enzyme.” for “enzyme. 20 μM or”, “2mer. Monomers could not be included into this calculation due to their inability to enter the gel.” for “2mer, square: 1mer.”
# T2 sequence (P0A784 whole entry): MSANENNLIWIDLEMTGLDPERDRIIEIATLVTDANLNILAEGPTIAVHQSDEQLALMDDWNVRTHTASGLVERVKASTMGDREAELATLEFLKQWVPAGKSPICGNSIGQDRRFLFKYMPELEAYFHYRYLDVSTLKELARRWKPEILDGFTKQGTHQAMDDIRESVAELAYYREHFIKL
# T1 sequence (P22255 whole entry): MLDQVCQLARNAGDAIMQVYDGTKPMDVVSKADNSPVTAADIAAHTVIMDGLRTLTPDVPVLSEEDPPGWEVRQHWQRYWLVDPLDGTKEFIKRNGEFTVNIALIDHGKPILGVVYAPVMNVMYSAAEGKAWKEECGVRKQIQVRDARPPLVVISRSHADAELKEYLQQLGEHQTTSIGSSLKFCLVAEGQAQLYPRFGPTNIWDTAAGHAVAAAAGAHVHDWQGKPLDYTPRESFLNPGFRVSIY
# Sequence of NM23-H2 (P22392 whole entry): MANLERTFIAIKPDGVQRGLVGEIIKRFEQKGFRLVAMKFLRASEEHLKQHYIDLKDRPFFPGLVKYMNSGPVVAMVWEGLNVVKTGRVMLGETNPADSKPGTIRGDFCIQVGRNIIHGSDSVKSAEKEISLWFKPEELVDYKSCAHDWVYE
# T3 sequence (P09874 whole entry): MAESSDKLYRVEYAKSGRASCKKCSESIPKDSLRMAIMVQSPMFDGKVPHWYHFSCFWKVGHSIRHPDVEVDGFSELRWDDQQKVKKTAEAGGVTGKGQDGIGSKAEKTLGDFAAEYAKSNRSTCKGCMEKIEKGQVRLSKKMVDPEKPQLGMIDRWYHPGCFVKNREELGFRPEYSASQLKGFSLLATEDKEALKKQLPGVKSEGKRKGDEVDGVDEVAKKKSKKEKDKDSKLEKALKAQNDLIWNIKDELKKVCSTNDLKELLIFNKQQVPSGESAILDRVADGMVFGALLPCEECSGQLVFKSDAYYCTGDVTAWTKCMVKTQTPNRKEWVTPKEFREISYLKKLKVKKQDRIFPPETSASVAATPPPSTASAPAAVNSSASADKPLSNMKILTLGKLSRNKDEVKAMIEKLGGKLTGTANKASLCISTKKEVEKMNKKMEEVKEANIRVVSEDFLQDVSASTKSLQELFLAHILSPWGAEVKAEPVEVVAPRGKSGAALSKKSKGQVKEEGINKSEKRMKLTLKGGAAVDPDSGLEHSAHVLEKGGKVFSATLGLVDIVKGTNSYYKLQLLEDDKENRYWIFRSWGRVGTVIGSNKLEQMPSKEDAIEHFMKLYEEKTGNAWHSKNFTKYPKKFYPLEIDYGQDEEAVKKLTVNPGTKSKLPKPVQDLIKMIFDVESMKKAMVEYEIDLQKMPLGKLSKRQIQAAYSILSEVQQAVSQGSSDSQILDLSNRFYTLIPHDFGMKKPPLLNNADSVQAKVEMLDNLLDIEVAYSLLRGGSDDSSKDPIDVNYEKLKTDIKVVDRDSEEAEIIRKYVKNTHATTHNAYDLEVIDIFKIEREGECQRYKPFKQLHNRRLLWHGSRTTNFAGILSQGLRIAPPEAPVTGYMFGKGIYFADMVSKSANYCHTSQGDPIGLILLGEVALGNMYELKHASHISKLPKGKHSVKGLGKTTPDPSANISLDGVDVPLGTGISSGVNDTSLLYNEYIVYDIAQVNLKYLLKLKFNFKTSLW
smiles,measurement,setting,value
Nc1ncnc2c1ncn2[C@@H]1O[C@H](COP(=O)(O)OP(=O)(O)O)[C@@H](O)[C@H]1O [ADP],inhibition of the cleavage reaction (yes/no),NM23-H2,not
"Nc1ncnc2c1ncn2[C@@H]1O[C@H](COP(=O)(O)O)[C@@H](O)[C@H]1O [AMP, 5′adenosine monophosphate]",binding of CysQ to nucleotide-agarose,CysQ [1],not
same,inhibition of degradation of nanoRNA by Orn,Orn [2],inhibiting
same,binding of Orn to nucleotide-agarose,Orn [3],roughly one third
Nc1ncnc2c1ncn2[C@@H]1O[C@H](COP(=O)(O)OP(=O)(O)OP(=O)(O)O)[C@@H](O)[C@H]1O [ATP],inhibition of the cleavage reaction,NM23-H2; 0.5 mM,50%
[Ca+2].[Cl-].[Cl-] [CaCl2],inhibition of CysQ,"CysQ [4]; 2 mM CaCl2, in the presence of 200 mM NaCl",complete inhibition
"Nc1ncnc2c1ncn2[C@@H]1O[C@H](COP(=O)(O)O)[C@@H](OP(=O)(O)O)[C@H]1O [pAp, 3′-phosphoadenosine 5′-phosphate]",binding of CysQ to nucleotide-agarose,CysQ [1],almost quantitatively
same,inhibition of degradation of nanoRNA by Orn,Orn [2],significantly more pronounced
same,PARP activity,PARP,60%
same,inhibition of Sfn-catalyzed degradation of nanoRNA,Sfn [5]; 20 μM pAp,Significant inhibition
same,inhibition of Sfn-catalyzed degradation of nanoRNA,Sfn [5]; 50 μM pAp,increasing inhibition
same,sensitivity of Sfn-catalyzed degradation of DNA oligos,Sfn [6],highly sensitive
same,binding of Orn to nucleotide-agarose,Orn [3],almost quantitatively
"[Cl-].[Na+] [sodium, NaCl]",inhibition of CysQ by sodium,"CysQ [4]; physiological concentrations, 200 mM NaCl",not inhibitory
